Here are results for seven compounds from PubChem BioAssay (NCI).

The structures appear in SMILES notation.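 Dose response: 5 concentrations. Exposure: 48 h. Format: 96-well plates. Endpoint: linear interpolation; highest concentration if not reached. Here, GI50 denotes the concentration required for 50% inhibition of growth. At the TGI there is no net growth.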

Among the test systems are PC-3 prostate; MALME-3M melanoma; SF-295 CNS; NCI-H23 lung; A498 renal; NCI-H460 lung; HCC-2998 colon; RXF 393 renal; MDA-MB-435; LOX IMVI melanoma.
Assay in all cases: inhibition of tumour cell growth, NCI panel, 48 h

Take `Cn1ncc2cc(-c3cnc(N)c(Cl)c3N3CCC4(CCNC4=O)CC3)ccc21`: the GI50 in the experiment with PC-3 prostate is 42.1 µM; in the experiment with MALME-3M melanoma it was 37.5 µM; in the experiment on SF-295 CNS it was 31.2 µM; in the experiment with NCI-H23 lung, 46.7 µM; with A498 renal it was 11.2 µM; in the experiment on NCI-H460 lung, 59 µM. The GI50 in the experiment with HCC-2998 colon is greater than 100 µM; in the experiment with RXF 393 renal, 8.11 µM; in the experiment with MDA-MB-435, 45.4 µM; in the experiment with LOX IMVI melanoma, 33.1 µM. Besides, the TGI was greater than 100 µM with PC-3 prostate; greater than 100 µM in the experiment on MALME-3M melanoma; greater than 100 µM in the experiment with SF-295 CNS; greater than 100 µM in the experiment with NCI-H23 lung; 32.4 µM in the experiment with A498 renal; greater than 100 µM with NCI-H460 lung. Moreover, the TGI with HCC-2998 colon was greater than 100 µM; in the experiment with RXF 393 renal, 54.3 µM; with MDA-MB-435 it was greater than 100 µM; in the experiment on LOX IMVI melanoma, greater than 100 µM.
`CO/N=C(\c1ccccc1)c1cnn(-c2ccccc2)c1N`: the GI50 in the experiment with PC-3 prostate is greater than 25 µM; with MALME-3M melanoma, greater than 25 µM; with SF-295 CNS it was greater than 25 µM; in the experiment on NCI-H23 lung it was greater than 25 µM; with A498 renal, greater than 16.8 µM; in the experiment with NCI-H460 lung, greater than 25 µM. The GI50 with HCC-2998 colon, in the experiment with RXF 393 renal, with MDA-MB-435 and in the experiment with LOX IMVI melanoma was greater than 25 µM in each case. Also, the TGI in the experiment with PC-3 prostate, in the experiment with MALME-3M melanoma, in the experiment on SF-295 CNS, in the experiment on NCI-H23 lung, in the experiment with A498 renal and with NCI-H460 lung was greater than 25 µM each time. The TGI in the experiment on HCC-2998 colon, in the experiment with RXF 393 renal, in the experiment on MDA-MB-435 and with LOX IMVI melanoma was greater than 25 µM each time.
Regarding `CS(=O)(=O)c1nccc(-c2c(-c3cccc(OCc4ccc(F)cc4)c3)nc3sccn23)n1`, the GI50 in the experiment on PC-3 prostate is 4.62 µM; with MALME-3M melanoma it was 67.3 µM; in the experiment with SF-295 CNS, greater than 100 µM; with NCI-H23 lung, 11.7 µM; with A498 renal it was 18.2 µM; with NCI-H460 lung it was 56.7 µM. Moreover, the GI50 is 2.28 µM in the experiment on HCC-2998 colon, 21.7 µM with RXF 393 renal, 30.3 µM in the experiment on MDA-MB-435 and 4.7 µM with LOX IMVI melanoma. Moreover, the TGI in the experiment with PC-3 prostate was greater than 28 µM; in the experiment with MALME-3M melanoma, greater than 100 µM; in the experiment on SF-295 CNS it was greater than 100 µM; in the experiment with NCI-H23 lung, greater than 100 µM; in the experiment with A498 renal it was 65.2 µM; in the experiment on NCI-H460 lung, greater than 100 µM. Moreover, the TGI was 5.54 µM in the experiment with HCC-2998 colon, greater than 100 µM in the experiment on RXF 393 renal, greater than 100 µM in the experiment on MDA-MB-435 and greater than 100 µM in the experiment on LOX IMVI melanoma.
On to `O=C1C(=O)c2ccc(Br)cc2-c2cc(Br)ccc21`, for which the GI50 was 20.3 µM with PC-3 prostate; 7.74 µM with MALME-3M melanoma; 51.8 µM in the experiment on SF-295 CNS; 2.56 µM with NCI-H23 lung; greater than 28.1 µM in the experiment on A498 renal; 4.5 µM in the experiment with NCI-H460 lung. Also, the GI50 in the experiment with HCC-2998 colon is 21.3 µM; in the experiment with RXF 393 renal, 1.85 µM; in the experiment on MDA-MB-435 it was 1.76 µM; in the experiment with LOX IMVI melanoma it was 0.717 µM. The TGI in the experiment on PC-3 prostate is greater than 96.6 µM; in the experiment with MALME-3M melanoma, greater than 52.3 µM; in the experiment with SF-295 CNS it was greater than 100 µM; in the experiment with NCI-H23 lung, 13.2 µM; in the experiment with A498 renal it was greater than 100 µM; in the experiment with NCI-H460 lung, greater than 89.2 µM. Further, the TGI is greater than 100 µM with HCC-2998 colon, 7.36 µM in the experiment with RXF 393 renal, 4.07 µM in the experiment on MDA-MB-435 and 2.13 µM in the experiment on LOX IMVI melanoma.
Consider `COc1cc(-c2c3c(cn2S(=O)(=O)c2ccccc2)-c2nc(N)sc2CC3)cc(OC)c1OC`, for which the GI50 is 0.549 µM in the experiment on PC-3 prostate; 0.449 µM in the experiment on MALME-3M melanoma; 0.372 µM with SF-295 CNS; 4.29 µM with NCI-H23 lung; 0.56 µM with A498 renal; 0.51 µM in the experiment with NCI-H460 lung. Also, the GI50 is 4.81 µM in the experiment with HCC-2998 colon, 1.04 µM in the experiment on RXF 393 renal, 0.238 µM in the experiment on MDA-MB-435 and 0.987 µM with LOX IMVI melanoma. The TGI was 25.8 µM with PC-3 prostate; 38 µM in the experiment with MALME-3M melanoma; 3.52 µM in the experiment on SF-295 CNS; greater than 100 µM in the experiment with NCI-H23 lung; 22.3 µM in the experiment on A498 renal; 18.4 µM with NCI-H460 lung. For the same compound, the TGI in the experiment with HCC-2998 colon was greater than 100 µM; in the experiment with RXF 393 renal, 14.5 µM; in the experiment with MDA-MB-435 it was 0.791 µM; with LOX IMVI melanoma it was greater than 100 µM.
With `CCC(=O)Sc1ccccc1C(=O)Nc1ccc(Cl)cc1`, the GI50 with PC-3 prostate is 10.8 µM; in the experiment on MALME-3M melanoma, 8.76 µM; in the experiment on SF-295 CNS it was 5.08 µM; in the experiment on NCI-H23 lung it was 6.43 µM; with A498 renal, 9.19 µM; with NCI-H460 lung, 4.84 µM. Further, the GI50 in the experiment with HCC-2998 colon was 18.5 µM; in the experiment on RXF 393 renal, 28.7 µM; in the experiment with MDA-MB-435, 6.92 µM; in the experiment on LOX IMVI melanoma, 5.91 µM. Also, the TGI came to 56.3 µM in the experiment on PC-3 prostate; 51.2 µM in the experiment with MALME-3M melanoma; 25.4 µM in the experiment with SF-295 CNS; 39.2 µM in the experiment on NCI-H23 lung; 38.5 µM in the experiment on A498 renal; 36 µM in the experiment with NCI-H460 lung. The TGI in the experiment with HCC-2998 colon is 47 µM; with RXF 393 renal it was greater than 100 µM; in the experiment on MDA-MB-435 it was 39.9 µM; in the experiment on LOX IMVI melanoma it was 24.4 µM.
In the case of `CC1(C)CCC(S(=O)(=O)c2ccc3c(c2)/C(=N\O)c2cc(S(=O)(=O)N4CCC(O)(c5cccc(C(F)(F)F)c5)CC4)ccc2-3)CC1`, the GI50 in the experiment on PC-3 prostate is 0.0238 µM; in the experiment on MALME-3M melanoma, 0.0216 µM; in the experiment with SF-295 CNS, 0.0272 µM; in the experiment on NCI-H23 lung it was 0.118 µM; in the experiment on A498 renal, 1.69 µM; with NCI-H460 lung, 0.0261 µM. Besides, the GI50 in the experiment on HCC-2998 colon is 0.0237 µM; in the experiment with RXF 393 renal, 0.053 µM; in the experiment on MDA-MB-435, 0.0283 µM; in the experiment with LOX IMVI melanoma, 0.0183 µM. Also, the TGI in the experiment with PC-3 prostate stood at 0.0585 µM; with MALME-3M melanoma it was 0.053 µM; in the experiment on SF-295 CNS, 0.11 µM; with NCI-H23 lung, 1.37 µM; with A498 renal, 3.85 µM; with NCI-H460 lung, 0.0613 µM. Also, the TGI with HCC-2998 colon stood at 0.0545 µM; with RXF 393 renal, 0.185 µM; with MDA-MB-435, 0.122 µM; in the experiment on LOX IMVI melanoma it was 0.0381 µM.
